Measured values from US9326513B2, “Fungicidal compositions” (Syngenta Participations AG, priority 2011, dated 2016).

Legend:
Format in all cases: in vivo
Conditions in all cases: foliar, compared to untreated control leaf disks, read-out: disease control
[1] = system: Blumeria graminis f. sp. tritici (Erysiphe graminis f. sp. tritici); assay: Blumeria graminis f. sp. tritici / wheat / leaf disc preventative (powdery mildew on wheat)
In short: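 Preventative leaf-disc test: compound (200 ppm) was sprayed onto cv. Kanzler wheat segments, which were dusted with conidia from infected plants 1 day after application. After incubation at 20° C and 60% rh, disease control relative to untreated segments was rated 6-8 days after application.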

[2] = system: Puccinia recondita f. sp. tritici; assay: Puccinia recondita f. sp. tritici / wheat / leaf disc preventative (brown rust)
Description: Puccinia recondita f. sp. tritici/Wheat/Leaf Disc Preventative (Brown Rust) Wheat leaf segments cv. Kanzler were placed on agar in multiwell plates (24-well format) and sprayed with the formulated test compound diluted in water. The leaf disks were inoculated with a spore suspension of the fungus 1 day after application.

[3] = system: Puccinia recondita f. sp. tritici; assay: Puccinia recondita f. sp. tritici / wheat / leaf disc curative (brown rust)
Protocol: Puccinia recondita f. sp. tritici/Wheat/Leaf Disc Curative (Brown Rust) Wheat leaf segments cv. Kanzler are placed on agar in multiwell plates (24-well format). The leaf segments are inoculated with a spore suspension of the fungus. Plates were stored in darkness at 19° C. and 75% rh. The formulated test compound diluted in water was applied 1 day after inoculation.

[4] = system: Pyrenophora teres; assay: Pyrenophora teres / barley / leaf disc preventative (net blotch)
Description: Pyrenophora teres/Barley/Leaf Disc Preventative (Net Blotch) Barley leaf segments cv. Hasso were placed on agar in a multiwell plate (24-well format) and sprayed with the formulated test compound diluted in water. The leaf segments were inoculated with a spore suspension of the fungus 2 days after application.

Measured: pest or weed control at 200 ppm

CCN(C)/C=N/c1cc(Br)c(OCC(C)c2ccccc2)nc1C (stereo not drawn) [Q.223]
≥ 50%: all assays above

CCN(C)/C=N/c1cc(Br)c(OC2Cc3ccc(Cl)cc3C2)nc1C (stereo not drawn) [Q.233]
≥ 50%: all assays above

CCN(C)/C=N/c1cc(Br)c(OC2Cc3cc(C)c(C)cc3C2)nc1C [Q.197]
≥ 50%: all assays above

CCN(C)/C=N/c1cc(Br)c(OCc2cccc(I)c2)nc1C [Q.174]
≥ 50%: all assays above

CCN(C)/C=N/c1cc(Br)c(OC(C)c2ccns2)nc1C (stereo not drawn) [Q.246]
≥ 50%: all assays above

CCN(C)/C=N/c1cc(Br)c(OC(C)C2CCc3ccccc3C2)nc1C (stereo not drawn) [Q.225]
≥ 50%: all assays above

CCN(C)/C=N/c1cc(Br)c(OC2CCC(C(C)C)CC2)nc1C (stereo not drawn) [Q.334]
≥ 50%: all assays above

CCN(C)/C=N/c1cc(Br)c(OCCc2cccc(F)c2)nc1C [Q.116]
≥ 50%: all assays above

CCN(C)/C=N/c1cc(Br)c(OCc2cccc(C(F)F)c2)nc1C [Q.170]
≥ 50%: all assays above

Cc1nc(OC(C)c2cc(F)cc(F)c2)c(Br)cc1/N=C/N1CCCC1 (stereo not drawn) [Q.193]
≥ 50%: all assays above

CCN(C)/C=N/c1cc(Br)c(OC(C)c2ccccc2Cl)nc1C (stereo not drawn) [Q.301]
≥ 50%: all assays above

CCN(C)/C=N/c1cc(Br)c(OC(C)CCC2CC2)nc1C (stereo not drawn) [Q.357]
≥ 50%: all assays above

CCc1cccc(C(C)Oc2nc(C)c(/N=C/N(C)CC)cc2Br)c1 (stereo not drawn) [Q.284]
≥ 50%: all assays above

CCN(C)/C=N/c1cc(Br)c(OC2CCCC(Oc3ccccc3)C2)nc1C (stereo not drawn) [Q.241]
≥ 50%: all assays above

C=CCCCOc1nc(C)c(/N=C/N(C)CC)cc1Br [Q.034]
≥ 50%: all assays above

CCN(C)/C=N/c1cc(Br)c(OCCc2ccccc2C)nc1C [Q.349]
≥ 50%: all assays above

CCN(C)/C=N/c1cc(C)c(OCCCC(C)C)nc1C [Q.007]
≥ 50%: all assays above

CCN(C)/C=N/c1cc(Br)c(OC(C)Cc2cc(F)cc(F)c2)nc1C (stereo not drawn) [Q.217]
≥ 50%: all assays above

CCN(C)/C=N/c1cc(Br)c(OC(C)Cc2ccccc2C)nc1C (stereo not drawn) [Q.353]
≥ 50%: all assays above

CCN(C)/C=N/c1cc(Br)c(OCCCc2ccc(F)cc2)nc1C [Q.131]
≥ 50%: all assays above

C#Cc1cc(/N=C/N(C)CC)c(C)nc1OC(C)c1cc(F)cc(F)c1 (stereo not drawn) [Q.229]
≥ 50%: all assays above

CCN(C)/C=N/c1cc(Br)c(OC2CC=CCC2)nc1C (stereo not drawn) [Q.316]
≥ 50%: all assays above

CCN(C)/C=N/c1cc(Br)c(OC(C)C2CCCc3ccccc32)nc1C (stereo not drawn) [Q.227]
≥ 50%: all assays above

CCN(C)/C=N/c1cc(Br)c(OC2CCC(=O)C=C2C)nc1C (stereo not drawn) [Q.282]
≥ 50%: all assays above

C=CCCCOc1nc(C)c(/N=C/N(C)CC)cc1C [Q.057]
≥ 50%: all assays above

C=CCOc1nc(C)c(/N=C/N(C)CC)cc1Br [Q.393]
≥ 50%: all assays above

CCN(C)/C=N/c1cc(Br)c(OC2Cc3cc(OC)c(OC)cc3C2)nc1C [Q.066]
≥ 50%: all assays above

CCN(C)/C=N/c1cc(Br)c(OCCc2ccc(OC)cc2)nc1C [Q.011]
≥ 50%: all assays above

CCN(C)/C=N/c1cc(Br)c(OCc2ccccc2[S+](C)[O-])nc1C (stereo not drawn) [Q.336]
≥ 50%: all assays above

CCN(C)/C=N/c1cc(Br)c(OCCCC(C)=C(C)C)nc1C [Q.103]
≥ 50%: all assays above

CCN(C)/C=N/c1cc(Br)c(OCc2ccc(OC)nc2)nc1C [Q.115]
≥ 50%: all assays above

CCc1ccccc1COc1nc(C)c(/N=C/N(C)CC)cc1Br [Q.285]
≥ 50%: all assays above

CCN(C)/C=N/c1cc(Br)c(OC2Cc3cccc(C)c3C2)nc1C (stereo not drawn) [Q.200]
≥ 50%: all assays above

CCN(C)/C=N/c1cc(Br)c(OC(C)c2ccc3cccnc3c2)nc1C (stereo not drawn) [Q.242]
≥ 50%: all assays above

CCN(C)/C=N/c1cc(Br)c(OCCCCc2ccc(OC)cc2)nc1C [Q.046]
≥ 50%: all assays above

CCN(/C=N/c1cc(Br)c(OCCCC(C)C)nc1C)CC [Q.001]
≥ 50%: all assays above

CCN(C)/C=N/c1cc(Br)c(OC2CCCC(Oc3ccccn3)C2)nc1C (stereo not drawn) [Q.240]
≥ 50%: all assays above

C=C(C)c1nc(OCc2ccccc2C)c(Br)cc1/N=C/N(C)CC [Q.400]
≥ 50%: all assays above

C=C1CCC(Oc2nc(C)c(/N=C/N(C)CC)cc2Br)CC1 [Q.293]
≥ 50%: all assays above

CCN(C)/C=N/c1cc(Br)c(OC2Cc3ccc(C)cc3C2)nc1C (stereo not drawn) [Q.243]
≥ 50%: all assays above

CCN(C)/C=N/c1cc(Br)c(OC2Cc3ccc(OCc4ccccc4)cc3C2)nc1C (stereo not drawn) [Q.168]
≥ 50%: all assays above

CCN(C)/C=N/c1cc(Br)c(OCCC2CC2)nc1C [Q.222]
≥ 50%: all assays above
